Legend:
[1] = target: T1, β2-AR-mCer (Homo sapiens, UniProt P07550); test: competition pull-down assay, displacement of PC-Qp (fragments) from β2-AR-mCer membranes; type: binding; details: PC-Qp 50 μM; thirty seconds after UV irradiation
T1 construct: expressed in transfected cells; host or cells: native membranes of transiently transfected HEK293T cells
Description: Native membranes were prepared from cells expressing β2-mCer and were stored in sucrose-supplemented buffer A as described above (Membrane preparations). Membranes were sonicated (3× bursts, 15 s with 1 min pauses) and resuspended in ΔFRET buffer minus Ca^2+ to a concentration of 10 nM receptor based on fluorescence counts. bioQp (30 μM)/30 μM bioQp + 30 μM Qp/30 μM bioQp + 50 μM Qp, and 100 μM isoproterenol were added and mixed for 5 min. Samples were split into duplicates, one of which was not manipulated in any way to obtain the total receptor counts. To the other tube, 20 μl of 0.4 mg/ml streptavidin-coated magnetic beads were added, mixed, and precipitated using a Neodymium disc magnet N52 (20 × 40 mm). Supernatant was removed to a fresh micro-centrifuge tube to monitor fluorescence of receptors not bound to the beads. Percentage of receptors bound to the beads was calculated by subtracting the unbound from the total (duplicate). The experiment was repeated with UV exposure for 2 min, followed by the addition and pulldown using the magnetic beads.

[2] = test system: β2-AR-Sp SPASM sensor; test: ΔFRET assay of β2-AR activation on native membranes with β2-AR-Sp SPASM sensor; type: biochemical, human; design: mean ΔFRET: unit of the concentration uncertain; details: for mean ΔFRET: SuppFig 3c
Description: Membranes were prepared following a published protocol[56] from HEK293T cells transiently transfected with the appropriate DNA (β2-AR-mCherry, β2-mCerulean, V1AR-mCherry, β2-AR-ICL3 or β2-AR-Sp). Cells were collected in culture medium and washed twice with PBS by centrifugation (300 × g, 3 min, ambient temperature). Cell pellets were incubated with an ice-cold hypotonic buffer (solution A: 10 mM HEPES, 1 mM EGTA, pH 7.2) for 30 min on ice. Cells in solution A were lysed gently (30 strokes) in a chilled Dounce homogenizer in the presence of 1.5 μg/mL aprotinin, 1.5 μg/mL leupeptin, 5 μg/mL phenylmethylsulfonyl fluoride (PMSF) and 1 mM dithiothreitol (DTT). Nuclei and intact cells were eliminated by centrifugation at 1000 × g, 5 min, 4 °C. All subsequent centrifugation steps were performed in a TLA100.4 rotor at 135,000 × g, 30 min, 4 °C. Native membranes were washed with 20 mM HEPES, 100 mM NaCl, 5 mM MgCl2, 100 μM GDP in the presence of 1.5 μg/mL aprotinin, 1.5 μg/mL leupeptin, 5 μg/mL PMSF, and 1 mM DTT, and were stored in the same buffer with 12% sucrose. For experiments to monitor Gα peptide–GPCR interactions using ΔFRET response, the native β2-AR-Sp sensor-containing membranes were washed in buffer containing 20 mM HEPES, 100 mM NaCl, 45 mM KCl, 5 mM MgCl2, and 100 μM GDP, and were stored in sucrose (12% w/v)-supplemented wash buffer.
Native membranes were collected from HEK293T cells expressing either the β2-AR-Sp SPASM sensor or the β2-AR-ICL3 conformational sensor. Frozen membranes were thawed and handled on ice. The membranes were resuspended by sonication to a concentration of 100 nM sensor (1 × 10^6 mCer cps) in 20 mM HEPES, 100 mM NaCl, 45 mM KCl, 5 mM MgCl2, pH 7.4 (ΔFRET buffer minus Ca^2+) in the presence of 1.5 μg/mL aprotinin, 1.5 μg/mL leupeptin, and 5 μg/mL PMSF. Indicated peptides were added to 30 μM (50 μM for PC-Qp) in a sample volume of 1 mL. The sample was aliquoted as 90 μl into ten replicate tubes—five labeled ISO and five buffer. Agonist solution (ISO) containing 1 mM Isoproterenol and 1 mM ascorbic acid was prepared in ΔFRET buffer minus Ca^2+. […]

Question: Which results are given for “DTENIRFVFAAVKDTILQLNLKE(Anp)NLV [PC-Qp, photocleavable Qp, Y356 replaced by Anp]”?
Answer: competition with bioQp for receptor binding [1]: no longer competes with bioQp for interaction with the receptor; mean ΔFRET ([2]; PCQp (30 µM)): 0.018; mean ΔFRET ([2]; PCQp (50 µM)): 0.024; duration of sustained FRET response after peptide removal ([2]; β2-AR-Sp sensor, ISO 100 μM, depletion (bioQp) or photocleavage (PC-Qp)): 120 s
